Source: patent publication US20050004167A1, “Branched chain amino acid-dependent aminotransferase inhibitors and their use in the treatment of neurodegenerative diseases” (WARNER-LAMBERT COMPANY LLC, priority 2001, published 2005)
“And” between values parts separate entries of the source, which are not always exact repeats. Equal entries are not always repeated.

How the values were obtained:
[1] = target: T1, human Branched Chain Amino Acid Aminotransferase cytosolic form (hBCATc) (Homo sapiens, UniProt P54687); assay: In vitro coupled enzyme assay (glutamate dehydrogenase, NADH formation), human BCATc; type: biochemical; details: recombinant human BCATc, 37° C., 25 mM phosphate buffer pH 7.8; several values in a cell = repeat determinations; read-out: RhBCATc
T1 construct: made in house; host or cells: E. coli BL21(DE3)
T1 sequence (P54687 1-386): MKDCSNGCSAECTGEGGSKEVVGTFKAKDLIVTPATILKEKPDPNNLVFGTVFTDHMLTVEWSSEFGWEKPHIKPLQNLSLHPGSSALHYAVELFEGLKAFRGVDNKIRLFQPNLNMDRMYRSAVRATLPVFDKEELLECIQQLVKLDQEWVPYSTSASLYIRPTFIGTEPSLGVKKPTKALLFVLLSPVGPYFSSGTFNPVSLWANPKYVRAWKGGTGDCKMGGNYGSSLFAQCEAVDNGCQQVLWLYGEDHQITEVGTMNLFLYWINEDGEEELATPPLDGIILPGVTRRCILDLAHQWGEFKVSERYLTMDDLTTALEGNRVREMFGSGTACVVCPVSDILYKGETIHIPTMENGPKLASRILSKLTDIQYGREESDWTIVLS
Experimental: In vitro enzyme assay—human Branched Chain Amino Acid Aminotransferase cytosolic form (hBCATc) and mitochondrial form (hBCATm) as well as rat BCAT cytosolic form were assayed at 37° C. in 25 mM phosphate buffer pH 7.8. In addition, 2 mM DTT and 12.5 mM […] were added to the assay mixture. A coupling enzyme assay was used to monitor the production of glutamate. The formation of NADH from NAD+ at […] was followed on a 96-well plate Molecular Devices plate reader.
The following components were used in this coupled assay: 4 mM ADP, 1 mM NAD+, 750 μM L-Leucine, 500 μM α-ketoglutarate, 10 μM pyridoxal phosphate, 1 unit glutamate dehydrogenase, and 1.25 μg of the appropriate BCAT enzyme. Inhibitions by compounds were assayed by adding various concentrations to this coupled assay procedure as a DMSO stock up to a 5% v/v DMSO/buffer ratio.
Enzyme Preparation—humanBCATc and ratBCATc were expressed in BL21(DE3) cells. A growing culture of cells was induced with 1 mM IPTG at room temperature overnight. These cells were harvested by centrifugation at 10,000 g for 20 minutes. The supernatant was discarded, and the cells were stored at −80° C. until needed. The protein was purified by the following method. The cell paste was resuspended in extraction buffer (0.1 M phosphate, pH 8.0, with 0.01 M Tris-HCL and 5 mM TCEP and then lysed on a French Press at 1000 psi. The lysate was centrifuged at 10,000 g for 15 minutes, and the pellet was discarded. The supernatant was loaded onto a Hitrap Chelating column previously charged with 0.1 M NiSO4 and washed with 3 to 4 column volumes of extraction buffer. The column was then washed with 0.01 Tris, pH 7.5, 10% glycerol, 150 mM NaCl, 5 mM TCEP for two column volumes. The column was then further washed with two column volumes of 0.1 M phosphate, pH 6.0, 0.01 M Tris, 10% glycerol and 750 mM NaCl. Finally, the column was washed with two column volumes of the same buffer plus 50 mM imidazole. The BCAT enzyme was then eluted with the same buffer but with 350 mM imidazole. The eluant was then dialyzed overnight against 10 mM phosphate buffer pH 8.0, 10% glycerol, and 5 mM TCEP. The dialyzed protein was then loaded onto a Q-sepharose column and eluted using a salt gradient. Active fractions were collected and further purified on a Superose-12 column to yield pure BCAT protein.

SMILES | melting point [°C] | IC50 [1]
COc1c(C(=O)NNS(=O)(=O)c2ccccc2)oc2ccc(-c3ccccc3)cc12 (hydrate or solvate) [Example 65, 2-Benzofurancarboxylic acid, 3-methoxy-5-phenyl-, 2-(phenylsulfonyl)hydrazide] | 180.7 to 181.3 | 
Cc1ccc2oc(C(=O)NNS(=O)(=O)c3ccccc3C(F)(F)F)cc2c1 (hydrate or solvate) [Example 79, 2-Benzofurancarboxylic acid, 5-methyl-, 2-[[2-(trifluoromethyl)phenyl]sulfonyl]-hydrazide] | 194 to 195.4 | 
COc1cccc2cc(C(=O)NNS(=O)(=O)c3ccccc3C(F)(F)F)oc12 (hydrate or solvate) [Example 54, 2-Benzofurancarboxylic acid, 7-methoxy-, 2-[[2-(trifluoromethyl)phenyl]-sulfonyl]hydrazide] | 156.8 to 157.6 | 
CN(C)c1ccc(S(=O)(=O)NNC(=O)c2ccc3oc4ccccc4c3c2)cc1.Cl | 187.6 to 188.8 | 
COc1c(C(=O)NNS(=O)(=O)c2ccccc2)oc2cc3ccccc3cc12 (hydrate or solvate) [Example 68, Naptho[2,3-b]furan-2-carboxylic acid, 3-methoxy-, 2-(phenylsulfonyl)hydrazide] | 205.7 to 207.1 | 
Nc1ccc2oc(C(=O)NNS(=O)(=O)c3ccccc3)cc2c1 (hydrate or solvate) [Example 91, 2-Benzofurancarboxylic acid, 5-amino-, 2-(phenylsulfonyl)hydrazide] | 206.9 to 207.7 | 
Cc1ccc2oc(C(=O)NNS(=O)(=O)c3ccccc3C)cc2c1 (hydrate or solvate) [Example 81, 2-Benzofurancarboxylic acid, 5-methyl-, 2-[2-(methylphenyl)sulfonyl]hydrazide] | 174.5 to 174.7 | 
COc1ccc2cc(C(=O)NNS(=O)(=O)c3ccccc3)oc2c1 (hydrate or solvate) [Example 56, 2-Benzofurancarboxylic acid, 6-methoxy-, 2-(phenylsulfonyl)hydrazide] | 224.9 to 225.8 | 
O=C(NNS(=O)(=O)c1ccccc1Br)c1cc2cc(Cl)cc(Cl)c2o1 (hydrate or solvate) [Example 73, 2-Benzofurancarboxylic acid, 5,7-dichloro 2-[(2-bromophenyl)sulfonyl]-hydrazide] | 196.2 to 196.6 | 
Cc1ccc2oc(C(=O)NNS(=O)(=O)c3cccc(Cl)c3C)cc2c1 (hydrate or solvate) [Example 82, 2-Benzofurancarboxylic acid, 5-methyl-, 2-[(3-chloro-2-methylphenyl)sulfonyl]-hydrazide] | 182.4 to 184 | 
COc1cccc2cc(C(=O)NNS(=O)(=O)c3ccccc3C(F)(F)F)oc12 [Example 54, 2-Benzofurancarboxylic acid, 7-methoxy-, 2-[[2-(trifluoromethyl)phenyl]-sulfonyl]hydrazide] |  | 3.76 µM
Cc1cccc(S(=O)(=O)NNC(=O)c2ccc3ncccc3c2)c1 [Example 128, 6-Quinolinecarboxylic acid, 2-[(3-methylphenyl)sulfonyl]hydrazide] |  | 12 µM
COc1c(C(=O)NNS(=O)(=O)c2ccccc2)oc2ccc(Cl)cc12 [Example 78, 2-Benzofurancarboxylic acid, 5-chloro-3-methoxy, 2-(phenylsulfonyl)hydrazide] |  | 3.7 µM
O=C(NNS(=O)(=O)c1ccccc1)c1cccc2oc3ccccc3c12 [Example 12, 1-Dibenzofurancarboxylic acid 2-(phenylsulfonyl)hydrazide] |  | 90.5 µM
Cc1ccc(S(=O)(=O)NNC(=O)c2cnc3ccccc3c2)cc1 [Example 127, 3-Quinolinecarboxylic acid, 2-[(4-methylphenyl)sulfonyl]hydrazide] |  | 16.8 µM
O=C(NNS(=O)(=O)c1ccccc1)c1cccc2cccnc12 [Example 21, Quinoline-8-carboxylic acid 2-(phenylsulfonyl)hydrazide] |  | > 100 µM
COc1cccc2cc(C(=O)NNS(=O)(=O)c3cccc(C)c3)oc12 [Example 55, 2-Benzofurancarboxylic acid, 7-methoxy-, 2-[(3-methylphenyl)sulfonyl]hydrazide] |  | 3.53 µM and 3.3 µM

Results, then the molecule that gave them:

melting point [°C] | IC50 [1] | SMILES
240.2 to 241.1 |  | Nc1ccc2[nH]c(C(=O)NNS(=O)(=O)c3ccccc3)cc2c1 [Example 150, 2-Indolecarboxylic acid, 5-amino-2-phenylsulfonyl hydrazide]
249 to 250 |  | O=C(NNS(=O)(=O)c1ccccc1)c1cnc2ccccc2c1 (hydrate or solvate) [Example 154, Quinoline-3-carboxylic acid 2-(phenylsulfonyl)hydrazide]
 | 22 µM | O=C(NNS(=O)(=O)c1cccc(Cl)c1)c1ccc2ncccc2c1 [Example 130, 6-Quinolinecarboxylic acid, 2-[(3-chlorophenyl)sulfonyl]hydrazide]
250.6 to 251.3 |  | O=C(NNS(=O)(=O)c1cccc(F)c1)c1ccc2ncccc2c1 (hydrate or solvate) [Example 132, 6-Quinolinecarboxylic acid, 2-[(3-fluorophenyl)sulfonyl]hydrazide]
209 to 211 |  | O=C(NNS(=O)(=O)c1ccccc1)c1ccc2[nH]ccc2c1 (hydrate or solvate) [Example 153, 1H-Indole-5-carboxylic acid 2-(phenylsulfonyl)hydrazide]
223 to 224 |  | CCOc1cccc2cc(C(=O)NNS(=O)(=O)c3ccccc3)oc12 [Example 147, 7-Ethoxy-2-benzofurancarboxylic acid 2-(phenylsulfonyl)-hydrazide]
 | 13 µM | Cc1cccc(S(=O)(=O)NNC(=O)c2cnc3ccccc3c2)c1 [Example 129, 3-Quinolinecarboxylic acid, 2-[(3-methylphenyl)sulfonyl]hydrazide]
223.4 to 224.1 |  | O=C(NNS(=O)(=O)c1ccccc1[N+](=O)[O-])c1ccc2oc3ccccc3c2c1 [Example 162, 2-Dibenzofurancarboxylic acid, 2-[(2-nitrophenyl)sulfonyl]hydrazide]
 | > 100 µM | O=C(NNS(=O)(=O)c1cc(Cl)cc(Cl)c1)c1ccc2ncccc2c1 [Example 138, 6-Quinolinecarboxylic acid, 2-[(3,5-dichlorophenyl)sulfonyl]hydrazide]
 | 61 µM | O=C(NNS(=O)(=O)c1cccc(Cl)c1)c1cnc2ccccc2c1 [Example 131, 3-Quinolinecarboxylic acid, 2-[(3-chlorophenyl)sulfonyl]hydrazide]
 | 41 µM | O=C(NNS(=O)(=O)c1cc(Cl)cc(Cl)c1)c1cnc2ccccc2c1 [Example 139, 3-Quinolinecarboxylic acid, 2-[(3,5-dichlorophenyl)sulfonyl]hydrazide]
 | > 100 µM | O=C(NNS(=O)(=O)c1cccc(F)c1)c1cnc2ccccc2c1 [Example 133, 3-Quinolinecarboxylic acid, 2-[(3-fluorophenyl)sulfonyl]hydrazide]
 | 40 µM | O=C(NNS(=O)(=O)c1cccc(F)c1)c1ccc2ncccc2c1 [Example 132, 6-Quinolinecarboxylic acid, 2-[(3-fluorophenyl)sulfonyl]hydrazide]
 | > 100 µM | O=C(NNS(=O)(=O)c1ccccc1)c1nccc2ccccc12 [Example 152, Isoquinoline-1-carboxylic acid 2-(phenylsulfonyl)hydrazide]
